Source: patent US10300096B2, “Use of adenoviruses and nucleic acids that code for said viruses” (priority 2003, dated 2019)

Key:
Assay type in all cases: cell-based
U373 tumour cells [1] = experiment: Replication of dl520 after addition of Irinotecan, Southern blot; details: 5 μM Irinotecan 24 hours before infection with 10 pfu/cell dl520, compared to untreated control
Experimental: In order to determine the effect of Irinotecan on adenoviral replication 10^6 U373 tumour cells were plated in 10 cm^2 Petri dishes. In a first reaction 5 μM Irinotecan was added after 24 hours. After another 24 hours the cells were infected with 10 pfu/cell dl520. After incubation of 3 days without Irinotecan DNA was isolated in accordance with the procedure described in example 10.
In a parallel reaction the thus prepared U373-cells were not pre-incubated with Irinotecan. After 48 hours of cultivating the cells without Irinotecan, they were infected with 10 pfu/cell dl520 and subsequently incubated without Irinotecan for another 3 days. DNA was isolated as described above.
Subsequently […] were digested with restriction enzyme Kpn I and a Southern Blot analysis performed. A part of the adenoviral genome (position: 22734-24235) generated by means of PCR was used as a probe.

U373 tumour cells [2] = experiment: Replication of dl520 after administration of Trichostatin A, Southern blot; details: 0.25, 0.5 and 0.75 μM Trichostatin A 24 hours before infection with 10 pfu dl520/cell, compared to untreated controls
Experimental: In order to test the effect of Trichostatin A on adenoviral replication, 10^6 U373 tumour cells were plated in 10 cm^2 Petri dishes. After 24 hours 0, 0.25, 0.5 and 0.75 μM Trichostatin A was added. After another 24 hours the cells were infected with 10 pfu dl520/cell.
After 3 days of incubation in medium without Trichostatin DNA was isolated. Subsequently 2 μg DNA were digested with restriction enzyme Kpn I and a Southern Blot analysis performed. A part of the adenoviral genome (position: 22734-24235) generated by means of PCR was used as a probe.

[3] = test system: coxsackievirus-adenovirus-receptor (CAR) on U373 cells; experiment: CAR expression by Facs-analysis; details: 1 μM Trichostatin for 24 hours; 11.3% without treatment
Experimental: 200,000 U373 cells were plated in 6 well plates. After 24 hours the cells were cultivated with 1 μM Trichostatin for 24 hours. After another 24 hours the cells were isolated. Subsequently, analysis of CAR expression was performed according to a standard protocol using Facs-analysis and the primary antibody anti-CAR clone RmcB from the company Upstate, and a rabbit anti-mouse FITC as secondary antibody (company DAKO).

HeLa cells = experiment: Oncolytic assay with daunorubicine and dl520, crystal violet; details: 40 ng/ml daunorubicine 3 hours before infection
Experimental: (§1) In the practising of the oncolytic assays the following procedure was followed: 200,000 cells (HeLa and U2OS, respectively) were plated into each well of a 6 well plate. On the next day 40 ng/ml (final concentration) of daunorubicine were added. After 3 hours of incubation the cells were infected with 10 and 30 pfu dl520/cell, respectively. Subsequently, the cells were incubated in cytostatic free medium. After 3-5 days the cells were stained using crystal violet.

U2OS cells = experiment: as above; details: 40 ng/ml daunorubicine 3 hours before infection
Experimental: as §1

With `CCc1c2c(nc3ccc(OC(=O)N4CCC(N5CCCCC5)CC4)cc13)-c1cc3c(c(=O)n1C2)COC(=O)[C@]3(O)CC` [Irinotecan] the “adenoviral replication (dl520, Southern blot)” value (U373 tumour cells [1]) was “significantly increased”.

`CC(/C=C/C(=O)NO)=C\[C@@H](C)C(=O)c1ccc(N(C)C)cc1` [Trichostatin A] was tested, and the “viral replication (dl520, Southern blot)” value (U373 tumour cells [2]) was “significantly increased” and the CAR-positive cells [3] was 56.2%.

In the case of `COc1cccc2c1C(=O)c1c(O)c3c(c(O)c1C2=O)C[C@@](O)(C(C)=O)C[C@@H]3O[C@H]1C[C@H](N)[C@H](O)[C@H](C)O1` [daunorubicine], the “effect on replication of dl520” value (HeLa cells) is reported as “induces the replication of dl520” and the “effect on replication of dl520” value (U2OS cells) is reported as “induces the replication of dl520”.
